Experiments:
[1] = system: HSV-1; assay: Immunofluorescence and confocal microscopy of ICP0; type: cell-based; settings: 10 μM, HSV-1 MOI 1.0, 30 h
Experimental: The HEp-2 cells were infected with HSV-1 at an MOI of 1.0 for 30 h along with the indicated compounds and control. The no-virus control (A), vehicle DMSO treated (B) and SD29-14 10 μM treated (C) cells were fixed with 4% paraformaldehyde and stained with anti-ICP0-FITC (green) and DAPI for DNA (blue) in the nucleus. The slides were observed under a Nikon confocal microscope (60× magnification lens) and pictures were taken to show infected cells (green) and total cells (DAPI). All scale bars correspond to 20 μm. The imaging experiments were performed three independent times, and the results shown represent one of the three experiments. (D) Quantification of fluorescent cells by Image based cell sorting in a Cellometer (Nexcelom Vision). […] The cells were prepared by immunostaining with ICP0 antibody after 24-h incubation with the indicated compounds. The total cell counts were 1.01×10^6/ml, 4.69×10^6/ml, and 5.36×10^6/ml for DMSO, SD29-14 (10 μM), and SD29-14 (100 μM) respectively. The numbers show the mean±SE of three replicates.
Hep-2 cells were grown to about 80% confluency in 12 well plate and the cells were co-infected with HSV-1 at an MOI of 1.0 for 30 h along with the indicated inhibitor compounds and control. The cells were fixed at room temperature with 4% paraformaldehyde-PBS for 15 minutes and then permeabilized at room temperature by 0.5% Triton X-100-PBS (pH 7.4) for 10 min. […]

[2] = molecular target: T1, RACK1 (Homo sapiens, UniProt P63244); assay: RACK1 protein western blot in HSV-1 infected HEp-2 cells; type: cell-based; settings: pre-treated 24 hours at 100 μM; 24 h after HSV-1 infection
T1 construct: endogenous in cells; host or cells: HEp-2 cells (human laryngeal carcinoma line), virus-infected
Experimental: The virus used in this diagram is an HSV-1 F strain expressing luciferase (R8411 mutant) under the control of the ICP27 promoter and was a gift from Prof. Bernard Roizman (University of Chicago). HEp-2 cells were grown to 80-90% confluency in Dulbecco's Modified Eagle's medium (DMEM) supplemented with 10% fetal calf serum (PCS) and 1% penicillin-streptomycin (PS) and fungicide. The HSV-1 virus and the indicated concentration of compound(s) were added and incubated for 24 h (A of FIG. 13 and B of FIG. 13) and for 48 h in panel C samples. The luciferase signals were imaged and quantified in a Perkin Elmer IVIS Spectrum Imaging system. […] Three replicates from two separate experiments were combined to generate the average and the standard error bar. […] The compound(s) inhibit Y248 phosphorylation of RACK1 protein.
Proteins were separated by SDS-PAGE (25 μg loaded in each lane), transferred to nitrocellulose membranes (Amersham Inc., Piscataway, N.J., USA), and blocked with 5% nonfat milk for 60 min at room temperature. Membranes were incubated overnight at 4° C. with primary antibody, followed by incubation with a horseradish peroxidase-coupled secondary antibody and detection with enhanced chemiluminescence (Pierce, Rockford, Ill., USA), according to standard methods. […]

Compound	ICP0 protein expression (immunofluorescence) [1]	production of RACK1 [2]
Nn1c(S)nnc1-c1cc(Cl)cc(Cl)c1 [SD29-14]	effectively eliminated any expression of ICP0 protein	
Nn1c(S)nnc1-c1ccc(F)cc1 [SD-29]		reduced the production of RACK1
